Test results taken from patent US5656288A, “Stable pharmaceutical compositions containing tiludronate hydrates and process for producing the pharmaceutical compositions” (Sanofi Winthrop, Inc., priority 1995, dated 1997).
“Also recorded” adds a separate entry of the source.

Tests used:
[1] = Crystal form change under humidity stress (FTIR, XRPD, TGA); type: physicochemical; conditions: for crystal form change (FTIR, XRPD, TGA): 95% RH; for changes by TGA / FTIR at low relative humidity: 12-58% RH, 2 weeks; for crystal form change (FTIR, TGA): 75-85% RH (75% and 84% RH samples)
Description: (§1) Samples of disodium tiludronate hemihydrate were stressed at humidity levels of 12-95% RH using different saturated salt solutions to obtain a range of relative humidity. The salt solutions used and the corresponding relative humidity are tabulated below:
(§2) The samples were held for 2 weeks at each humidity at 20° C. and analyzed by TGA for moisture content. The samples were also analyzed by FTIR to determine if spectroscopic changes were observed. Samples which increased in moisture content after 2 weeks were then moved to lower relative humidity to determine if the water uptake was reversible.
C) Fourier Transform Infrared Spectroscopy (FTIR)
FTIR spectra were obtained on the Nicolet 730 system equipped with an MCT detector. Samples were run as KBr dispersions at approximately 1% concentration.
D) X-Ray Powder Diffraction (XRPD)
XRPD data was provided by Kodak Analytical Technology Division (Rochester, N.Y.) using a Rigaku RU 300 system at […].

[2] = Hysteresis / reversibility of water uptake on moving to lower relative humidity; type: physicochemical; conditions: for stability / reversion at low relative humidity: moved to humidity as low as 31% RH after 75-95% RH
Description: as §2
Hysteresis data (samples stored at high humidity were moved from high to low humidity) for samples stressed at 75-95% RH is shown in FIG. 1b. […] If the moisture was hygroscopic in nature one would expect the moisture level to decrease as the humidity level is decreased.

[3] = ambient temperature and humidity
[4] = Solubility in acetate buffer pH 4.8, 20° C.; type: physicochemical; conditions: for solubility (concentration in acetate buffer): 30 min
Description: The solubility of unstressed hemihydrate, the monohydrate form and a sample which was equilibrated at 95% RH, i.e. tetrahydrate were compared in acetate buffer. A pH value of 4.8 was chosen. Approximately 250 mg of drug was added to 1 ml of solvent and agitated with a laboratory rotator at 20° C. The sample was filtered (0.45 micron) and diluted (200 ul to 25 ml). This solution was then diluted by a factor of 5 prior to UV analysis. Samples were analyzed at time points of 0.5, 3.0, and 24 hours with the Hewlett Packard 8451A diode array spectrophotometer. Absorbance was measured at 264 nm versus a standard prepared in acetate buffer. The solubility was determined (based on anhydrous drug) for two different samples (of each form) at each time point.

[5] = Intrinsic dissolution rate in acetate buffer pH 4.8, 20° C.; type: physicochemical; conditions: for intrinsic dissolution rate (average slope): acetate buffer pH 4.8, 20° C., 100 RPM, triplicate
Description: F) Intrinsic Dissolution Rate
The intrinsic dissolution rates of hemihydrate, the monohydrate form and tetrahydrate form were determined in acetate buffer (pH=4.8) at 20° C. A disk (0.5 cm^2) was compressed under the following conditions: 225-250 mg drug, 4000 lbs pressure, and 30 seconds compaction time. The disk was dissolved in a Vander Kamp VK 6000 dissolution bath in 250 ml solvent at 100 RPM. Samples were withdrawn at 2, 4, 6, 8, 10 and 15 minutes and diluted by a factor of 2 for UV analysis. Samples were analyzed at 264 nm with the Hewlett Packard 8451A diode array spectrophotometer. Intrinsic dissolution plots were generated by plotting concentration/area vs. time and determining the slope by linear regression. Each dissolution experiment was run in triplicate.

[6] = Hygroscopicity: water content by TGA after storage at defined relative humidity; type: physicochemical
Description: as §1, §2
A sample of the monohydrate form was also stressed with respect to humidity. Samples were stressed at 58-95% RH at 20° C. for 2 weeks.
B) Thermal Gravimetric Analysis (TGA)
Thermal Gravimetric Analysis was performed on the Perkin Elmer TGA-7 system. Samples were weighed into a platinum pan and scanned at a rate of 5° C./min. under nitrogen purge gas.

[7] = listed as disodium tiludronate hemihydrate, hemihydrate

O=P(O)(O)C(Sc1ccc(Cl)cc1)P(=O)(O)O [tetrahydrate, disodium 4-chlorophenylthiomethylenebisphosphonate]
crystal form change (FTIR, XRPD, TGA) [1]: little evidence of the monohydrate form
stability / reversion at low relative humidity [2]: stability of the tetrahydrate form at humidity levels as low as 31% RH
conversion to monohydrate or hemihydrate [3]: not convened to either the monohydrate or hemihydrate form thereof at ambient temperature and humidity
solubility (concentration in acetate buffer) ([4]; pH 4.8, 20° C., 0.5 hours, based on anhydrous drug): 140 mg/mL
intrinsic dissolution rate (average slope) [5]: 0.0359 mg/(ml*cm^2 *min)

O=P(O)(O)C(Sc1ccc(Cl)cc1)P(=O)(O)O [hemihydrate, disodium 4-chlorophenylthiomethylenebisphosphonate hemihydrate]
changes by TGA / FTIR at low relative humidity ([1]; hemihydrate): no changes in spectra
changes by TGA / FTIR at low relative humidity [1, 7]: no changes by TGA and FTIR
crystal form change (FTIR, TGA) ([1]; hemihydrate): partial change to monohydrate and tetrahydrate
crystal form change (FTIR, TGA) [1, 7]: partial transformation to the tetrahydrate form; also recorded: mixture of forms
crystal form change (FTIR, XRPD, TGA) ([1]; hemihydrate): conversion of the hemihydrate to the tetrahydrate form; also recorded: significant change in the FTIR spectra and X-ray pattern indicative of crystalline rearrangement
crystal form change (FTIR, XRPD, TGA) [1, 7]: crystalline changes accompany the increase in moisture content; also recorded: changed to a tetrahydrate form
stability / reversion at low relative humidity [2, 7]: did not revert at 31% RH
moisture level on moving stepwise to lower relative humidity (hysteresis) ([2]; samples stressed at 75-95% RH): not reversible
solubility at 0.5 h ([4]; acetate buffer, pH 4.8, aqueous buffer, pH 4.8, 20° C., 0.5 hours, based on anhydrous drug, read-out: solubility (concentration in acetate buffer)): 147 mg/mL
solubility at 24 hours relative to tetrahydrate ([4]; pH 4.8, 20° C., 24 hours): equivalent to the tetrahydrate
initial solubility relative to tetrahydrate ([4]; pH 4.8, 20° C., initial): higher than the tetrahydrate form
FTIR analysis of residual solid in solubility samples ([4]; pH 4.8, residual solid): conversion to the tetrahydrate
intrinsic dissolution rate (average slope) ([5]; hemihydrate): 0.0332 mg/(ml*cm^2 *min)
FTIR analysis of the disk at the end of the dissolution experiment ([5]; hemihydrate): conversion to the tetrahydrate form was occurring
water content (TGA analysis) ([6]; 12-58% RH, 20° C., 2 weeks): approximately 5%
water content ([6]; 75% RH, 20° C., 2 weeks): 8.4%
water content ([6]; 84% RH, 20° C., 2 weeks): 13.7%
moisture level / total weight loss (TGA) ([6]; 95% RH, 20° C., 2 weeks): 16.4%

O=P(O)(O)C(Sc1ccc(Cl)cc1)P(=O)(O)O [monohydrate, disodium 4-chlorophenylthiomethylene-bisphosphonate monohydrate]
solubility (concentration in acetate buffer) ([4]; pH 4.8, 20° C., 0.5 hours, based on anhydrous drug, monohydrate): 175 mg/mL
intrinsic dissolution rate (average slope) ([5]; monohydrate): 0.0351 mg/(ml*cm^2 *min)
FTIR analysis of the disk at the end of the dissolution experiment ([5]; monohydrate): did not show transformation to the tetrahydrate

O=P(O)(O)C(Sc1ccc(Cl)cc1)P(=O)(O)O [Tiludronate, disodium 4-chlorophenylthiomethylenebisphosphonate]
moisture content as relative humidity is increased ([6]; increasing RH): does not increase in moisture content as relative humidity is increased until a relative humidity is reached where crystalline changes occur
